# Laboratory results from publication PMC7523345 (Investigational new drugs, 2018).
# Entries after “also recorded” stand apart in the source; their conditions may differ.
# Assay: Phase I dose escalation study: safety, tolerability, DLT and MTD
# Format: in vivo
smiles,measurement,setting,value
Cc1cccc2c1NC(=O)[C@@H](NC(=O)[C@H](CCC(F)(F)F)[C@H](CCC(F)(F)F)C(N)=O)N=C2c1cccc(F)c1 [BMS-986115],"Hypokalaemia (drug related AE, Grade 3 and 4)",Arm B BIW 4 mg (N = 2),0 n (%)
same,"Hypokalaemia (drug related AE, all grades)",Arm B BIW 4 mg (N = 2),1 (50) n (%)
same,"Hyponatraemia (drug related AE, Grade 3 and 4)",Arm B BIW 4 mg (N = 2),0 n (%)
same,"Hyponatraemia (drug related AE, all grades)",Arm B BIW 4 mg (N = 2),0 n (%)
same,"Hypophosphataemia (drug related AE, Grade 3 and 4)",Arm B BIW 4 mg (N = 2),1 (50) n (%)
same,"Hypophosphataemia (drug related AE, all grades)",Arm B BIW 4 mg (N = 2),1 (50) n (%)
same,"Ileus (drug related AE, Grade 3 and 4)",Arm B BIW 4 mg (N = 2),0 n (%)
same,"Increased upper airway secretion (drug related AE, all grades)",Arm B BIW 4 mg (N = 2),1 (50) n (%)
same,"Laryngeal pain (drug related AE, all grades)",Arm B BIW 4 mg (N = 2),0 n (%)
same,"Leucocytosis (drug related AE, Grade 3 and 4)",Arm B BIW 4 mg (N = 2),0 n (%)
same,"Mouth ulceration (drug related AE, all grades)",Arm B BIW 4 mg (N = 2),0 n (%)
same,"Nausea (drug related AE, Grade 3 and 4)",Arm B BIW 4 mg (N = 2),0 n (%)
same,"Nausea (drug related AE, all grades)",Arm B BIW 4 mg (N = 2),0 n (%)
same,"Pruritus (drug related AE, Grade 3 and 4)",Arm B BIW 4 mg (N = 2),0 n (%)
same,"Pruritus (drug related AE, all grades)",Arm B BIW 4 mg (N = 2),1 (50) n (%)
same,"Pulmonary embolism (drug related AE, Grade 3 and 4)",Arm B BIW 4 mg (N = 2),0 n (%)
same,"Rash (drug related AE, all grades)",Arm B BIW 4 mg (N = 2),0 n (%)
same,"Rash maculopapular (drug related AE, all grades)",Arm B BIW 4 mg (N = 2),1 (50) n (%)
same,"Sinusitis (drug related AE, all grades)",Arm B BIW 4 mg (N = 2),0 n (%)
same,"Urticaria (drug related AE, Grade 3 and 4)",Arm B BIW 4 mg (N = 2),0 n (%)
same,"Vision blurred (drug related AE, all grades)",Arm B BIW 4 mg (N = 2),0 n (%)
same,"Vomiting (drug related AE, Grade 3 and 4)",Arm B BIW 4 mg (N = 2),0 n (%)
same,"Vomiting (drug related AE, all grades)",Arm B BIW 4 mg (N = 2),0 n (%)
same,"Weight decreased (drug related AE, all grades)",Arm B BIW 4 mg (N = 2),0 n (%)
same,Description of DLT,Arm B BIW 8 mg,Gr 3 diarrhoea; Gr 3 nausea/dehydration/anorexia with Gr 2 fatigue; also recorded: G3 diarrhoea; also recorded: G3 nausea/dehydration/anorexia
same,Description of study drug toxicity that led to treatment discontinuation,Arm B BIW 8 mg,G3 Diarrhoea (N = 1); also recorded: G3 Dehydration and anorexia (N = 1)
same,"Abdominal distension (drug related AE, all grades)",Arm B BIW 8 mg (N = 8),0 n (%)
same,"Abdominal pain (drug related AE, Grade 3 and 4)",Arm B BIW 8 mg (N = 8),0 n (%)
same,"Abdominal pain (drug related AE, all grades)",Arm B BIW 8 mg (N = 8),0 n (%)
same,"Blood creatinine increased (drug related AE, all grades)",Arm B BIW 8 mg (N = 8),1 (13) n (%)
same,"Colitis (drug related AE, Grade 3 and 4)",Arm B BIW 8 mg (N = 8),0 n (%)
same,"Cough (drug related AE, Grade 3 and 4)",Arm B BIW 8 mg (N = 8),0 n (%)
same,"Cough (drug related AE, all grades)",Arm B BIW 8 mg (N = 8),1 (13) n (%)
same,"Decreased Appetite (drug related AE, Grade 3 and 4)",Arm B BIW 8 mg (N = 8),1 (13) n (%)
same,"Decreased Appetite (drug related AE, all grades)",Arm B BIW 8 mg (N = 8),5 (63) n (%)
same,"Dehydration (drug related AE, Grade 3 and 4)",Arm B BIW 8 mg (N = 8),1 (13) n (%)
same,"Dehydration (drug related AE, all grades)",Arm B BIW 8 mg (N = 8),2 (25) n (%)
same,"Dermatitis acneiform (drug related AE, all grades)",Arm B BIW 8 mg (N = 8),0 n (%)
same,"Diarrhoea (drug related AE, Grade 3 and 4)",Arm B BIW 8 mg (N = 8),2 (25) n (%)
same,"Diarrhoea (drug related AE, all grades)",Arm B BIW 8 mg (N = 8),7 (88) n (%)
same,"Dry mouth (drug related AE, all grades)",Arm B BIW 8 mg (N = 8),1 (13) n (%)
same,"Dry skin (drug related AE, all grades)",Arm B BIW 8 mg (N = 8),2 (25) n (%)
same,"Dysgeusia (drug related AE, all grades)",Arm B BIW 8 mg (N = 8),1 (13) n (%)
same,"Dyspepsia (drug related AE, all grades)",Arm B BIW 8 mg (N = 8),0 n (%)
same,"Dysphonia (drug related AE, all grades)",Arm B BIW 8 mg (N = 8),1 (13) n (%)
same,"Fatigue (drug related AE, Grade 3 and 4)",Arm B BIW 8 mg (N = 8),0 n (%)
same,"Fatigue (drug related AE, all grades)",Arm B BIW 8 mg (N = 8),4 (50) n (%)
same,"Flatulence (drug related AE, all grades)",Arm B BIW 8 mg (N = 8),2 (25) n (%)
same,"Hypocalcaemia (drug related AE, Grade 3 and 4)",Arm B BIW 8 mg (N = 8),1 (13) n (%)
same,"Hypocalcaemia (drug related AE, all grades)",Arm B BIW 8 mg (N = 8),1 (13) n (%)
same,"Hypokalaemia (drug related AE, Grade 3 and 4)",Arm B BIW 8 mg (N = 8),0 n (%)
same,"Hypokalaemia (drug related AE, all grades)",Arm B BIW 8 mg (N = 8),2 (25) n (%)
same,"Hyponatraemia (drug related AE, Grade 3 and 4)",Arm B BIW 8 mg (N = 8),1 (13) n (%)
same,"Hyponatraemia (drug related AE, all grades)",Arm B BIW 8 mg (N = 8),1 (13) n (%)
same,"Hypophosphataemia (drug related AE, Grade 3 and 4)",Arm B BIW 8 mg (N = 8),4 (50) n (%)
same,"Hypophosphataemia (drug related AE, all grades)",Arm B BIW 8 mg (N = 8),5 (63) n (%)
same,"Ileus (drug related AE, Grade 3 and 4)",Arm B BIW 8 mg (N = 8),0 n (%)
same,"Increased upper airway secretion (drug related AE, all grades)",Arm B BIW 8 mg (N = 8),2 (25) n (%)
same,"Laryngeal pain (drug related AE, all grades)",Arm B BIW 8 mg (N = 8),0 n (%)
same,"Leucocytosis (drug related AE, Grade 3 and 4)",Arm B BIW 8 mg (N = 8),1 (13) n (%)
same,"Mouth ulceration (drug related AE, all grades)",Arm B BIW 8 mg (N = 8),1 (13) n (%)
same,"Nausea (drug related AE, Grade 3 and 4)",Arm B BIW 8 mg (N = 8),1 (13) n (%)
same,"Nausea (drug related AE, all grades)",Arm B BIW 8 mg (N = 8),6 (75) n (%)
same,"Pruritus (drug related AE, Grade 3 and 4)",Arm B BIW 8 mg (N = 8),0 n (%)
same,"Pruritus (drug related AE, all grades)",Arm B BIW 8 mg (N = 8),2 (25) n (%)
same,"Pulmonary embolism (drug related AE, Grade 3 and 4)",Arm B BIW 8 mg (N = 8),0 n (%)
same,"Rash (drug related AE, all grades)",Arm B BIW 8 mg (N = 8),3 (38) n (%)
same,"Rash maculopapular (drug related AE, all grades)",Arm B BIW 8 mg (N = 8),2 (25) n (%)
same,"Sinusitis (drug related AE, all grades)",Arm B BIW 8 mg (N = 8),0 n (%)
same,"Urticaria (drug related AE, Grade 3 and 4)",Arm B BIW 8 mg (N = 8),0 n (%)
